Experimental data published in article PMC7408072 (Pharmaceutics, 2020).
Peptide text beside a SMILES is read from it. * marks the point of attachment. 5TAMRA = CN(C)c1ccc2c(c1)Oc1cc(N(C)C)ccc1C21OC(=O)c2cc(C(=O)*)ccc21

Legend:
[1] = system: bovine BCEC monolayers co-cultured with rat astrocytes; assay: Transport, membrane adherence and cell uptake quantified by TAMRA fluorescence (bovine model); format: in vitro ADME; conditions: 3 h, 37 °C, N = 2-3, n = 3; for peptide adhering to the cell surface / peptide taken up by the cells (endothelial cells and astrocytes): 100 µM peptide, TAMRA fluorescence 542/568 nm, mean ± SEM; for peptide adhering to the cell surface: acetic acid buffer pH 3 wash fraction; for peptide taken up by the cells (endothelial cells and astrocytes): lysate fraction; for peptide transported across the barrier (abluminal content): 100 µM peptide luminal, 90 rpm, medium with 10% FBS, abluminal TAMRA fluorescence, compared to TAMRA-NR2B9c
Description: (§1) Transport across bovine or mouse BCEC monolayers co-cultured with rat astrocytes was carried out over 3 h at 37 °C with horizontal shaking (90 rpm). TEER was measured at room temperature using an Endohm 12 cup (World Precision Instruments, Sarasota, FL, USA) connected to a Millicell-ERS device (Millipore, Bedford, MA, USA). TEER was measured before application of the peptides and after each experiment. The bovine model had initial TEER values ranging from 771 to 1332 Ω·cm^2, whereas the mouse model had initial TEER values ranging from 136 to 217 Ω·cm^2.
TAMRA fluorescence was measured using a NovoStar fluorescence plate reader (BMG Labtech, Offenburg, Germany) with excitation/emission set to 542/568 nm. The transported peptide was calculated using standard curves ranging from 31 nM to 2 µM. All peptide standard curves were subjected to 3 h of incubation at 37 °C with horizontal shaking (90 rpm) in differentiation media withdrawn from BCECs co-cultured with rat astrocytes.
Two filters from each BCEC batch were subjected to quantification of the TAMRA-peptide adhering to the BCEC plasma membrane and peptide taken up by the BCECs and astrocytes. […] The peptide solutions were removed from the cells and the filters washed thrice with 37 °C hHBSS. To isolate the peptide fraction adhering to the plasma membrane, the BCECs were placed on ice and incubated with 300 µL ice-cold acetic acid buffer ([…], 1% BSA, pH 3) for 5 min. The acetic acid buffer solution was gently pipetted up and down twice prior to collection of 100 µL samples into a black clear-bottom 96-well plate for analysis. The remaining acetic acid buffer solution was removed from the luminal chamber and the cells washed thrice with ice-cold hHBSS. To isolate the peptide fraction being taken up by the BCECs and astrocytes, the filter inserts were cut out and 150 µL of ice-cold lysis buffer (10 mM Tris-HCl, 0.25 M sucrose, 1 mM EDTA, 1 mM ethylene-bis(oxyethylenenitrilo)tetraacetic acid tetrasodium (EGTA), 2% Tergitol™, Complete® inhibitor tablet) added prior to incubation for 10 min on ice. The cells were homogenized using a pellet pestle (Merck, St. Louis) and subjected to centrifugation at 10,000× g at 4 °C for 10 min. The 100 µL supernatant was transferred into a black clear-bottom 96-well plate. TAMRA fluorescence was measured using a NovoStar fluorescence plate reader (BMG Labtech, Offenburg, Germany) with excitation/emission set to 542/568 nm. The molar amount of membrane-adhered peptide and peptide taken up by the cells was calculated using standard curves freshly prepared in acetic acid buffer and lysis buffer, respectively, in concentrations ranging from 40 nM to 2.5 µM.

[2] = system: monocultures of primary bovine BCECs; assay: Live cell peptide uptake; format: cell-based; conditions: 1 h, 37 °C, live cell imaging; 100 µM TAMRA-NR2B9c, 50 µM Tat peptides (method) / 100 µM (Figure 4 legend)
Description: BCECs were obtained from a batch of isolated capillary fragments and cultured as described in Section 2.2. Following trypsinization on day 5, the BCECs were re-suspended in differentiation medium and 90,000/cm^2 seeded on collagen- and fibronectin-coated (both 10 µg/mL in PBS) LabTek® microscope slides (Merck, Søborg, Denmark). The cells were left in the incubator (10% CO2, 37 °C) for 48 h prior to use. […] The test solutions were removed and pre-warmed media containing 300 nM Hoechst and Lysotracker® (1:20,000; Thermo Fischer Scientific, Bedford, MA, USA) applied to the cells for 10 min at 37 °C. The cells were gently washed twice in 37 °C hHBSS and immediately imaged in FluoBrite medium (Thermo Fischer Scientific, Bedford, MA, USA). Images were captured using an Olympus IX-83 fluorescent microscope (Olympus, Hamburg, Germany) equipped with a Yokogawa CSU-X spinning disc unit (Yokogawa, Tokyo, Japan) and Andor iXon Ultra 897 camera (Oxford Instruments, Abingdon, Great Britain) using cellSens software (Olympus, Hamburg, Germany).

[3] = system: bovine BCEC monolayers co-cultured with rat astrocytes; assay: Barrier integrity by transendothelial electrical resistance (TEER); format: cell-based; conditions: 3 h, bovine BBB model; for barrier integrity (TEER before and after peptide application): 100 µM peptide, 37 °C, N = 3, n = 3
Description: as §1

[4] = system: primary mouse BCECs in co-culture with primary rat astrocytes; assay: Transport and cellular accumulation (mouse BBB model); format: in vitro ADME; conditions: 100 µM peptide, 3 h, TAMRA fluorescence; for transendothelial permeation of the mouse BBB model compared to TAMRA-NR2B9c: N = 3, n = 3 (Figure S5A); for accumulation in the cell fraction of the mouse BBB model compared to TAMRA-NR2B9c: lysate, N = 3, n = 3 (Figure S5B)
Description: Generation of mouse BCEC monolayers in co-culture with rat astrocytes: the capillary fragments were allowed to settle for 2–3 h before changing the media to DMEM containing 10% FBS and pyromycin (4 µg/mL). On day 3, the media was changed to DMEM containing 10% FBS and rat astrocytes seeded on the bottom of collagen and fibronectin coated (both 0.01 mg/mL in PBS) Transwell® plate permeable supports (120,000 cells/1.12 cm^2 support with 0.4 µm pore size). On day 5, the media in the Transwell® plate was changed to Complete Mouse Endothelial Cell Medium (PELOBiotech, Planegg/Martinsried, Germany). The endothelial cells were detached from the flask using trypsin-EDTA. The remaining trypsin-EDTA was removed by centrifugation in DMEM containing 10% FBS at 500× g for 5 min at room temperature. The endothelial cells were re-suspended in Complete Mouse Endothelial Cell Medium and seeded on the apical side of the Transwell® plate permeable supports (100,000 cells/support). On day 8, the medium was changed to differentiation medium. On day 10, the mouse BBB model was ready for use as evident by the measured transendothelial electrical resistance (TEER) values for each filter prior experimental start.
as §1
The withdrawn volume was replaced with media.
Transported peptide was calculated based on fluorescence using the same method as described for peptides applied to the bovine model. Subsequently, the peptide solutions were removed from the cells and the filters washed thrice with 4 °C hHBSS. To isolate the peptides accumulated in the cell fraction, the filter inserts were cut out and 250 µL of ice-cold lysis buffer added. The peptides were retrieved and quantified as described for the cell uptake fraction obtained following the permeation study using the bovine model.

SMILES	peptide adhering to the cell surface [1]	peptide taken up by the cells (endothelial cells and astrocytes) [1]	peptide uptake into live BCECs [2]	barrier integrity (TEER before and after peptide application) [3]	peptide transported across the barrier (abluminal content) [1]	transendothelial permeation of the mouse BBB model compared to TAMRA-NR2B9c [4]	barrier integrity (TEER) upon co-application of FITC-dextran with peptide ([3]; 1 mg/mL FITC-dextran with 100 µM peptide)	accumulation in the cell fraction of the mouse BBB model compared to TAMRA-NR2B9c [4]
CC[C@H](C)[C@H](NC(=O)[C@H](CO)NC(=O)[C@H](CO)NC(=O)[C@H](CC(C)C)NC(=O)[C@H](CCCCN)NC(=O)c1ccc2c(c1)C(=O)OC21c2ccc(N(C)C)cc2Oc2cc(N(C)C)ccc21)C(=O)N[C@@H](CCC(=O)O)C(=O)N[C@@H](CO)C(=O)N[C@@H](CC(=O)O)C(=O)N[C@H](C(=O)O)C(C)C [TAMRA-NR2B9c] (5TAMRA-KLSSIESDV-OH)	Minute amounts	Minute amounts	No uptake	did not affect the barrier integrity	–	–	–	–
CC[C@H](C)[C@H](NC(=O)CCOCCOCCN(CCOCCOCCC(=O)N[C@H](C(=O)N[C@@H](CCC(=O)O)C(=O)N[C@H](C(=O)N[C@@H](CC(=O)O)C(=O)N[C@H](C(=O)O)C(C)C)[C@@H](C)O)[C@@H](C)CC)C(=O)[C@H](CCCNC(=N)N)NC(=O)[C@H](CCCNC(=N)N)NC(=O)[C@H](CCCNC(=N)N)NC(=O)[C@H](CCC(N)=O)NC(=O)[C@H](CCCNC(=N)N)NC(=O)[C@H](CCCNC(=N)N)NC(=O)[C@H](CCCCN)NC(=O)[C@H](CCCCN)NC(=O)[C@H](CCCNC(=N)N)NC(=O)CNC(=O)[C@H](Cc1ccc(O)cc1)NC(=O)c1ccc2c(c1)C(=O)OC21c2ccc(N(C)C)cc2Oc2cc(N(C)C)ccc21)C(=O)N[C@@H](CCC(=O)O)C(=O)N[C@H](C(=O)N[C@@H](CC(=O)O)C(=O)N[C@H](C(=O)O)C(C)C)[C@@H](C)O [TAMRA-Tat-N-dimer]	Minute amounts	Minute amounts	taken up into vesicular structures to a similar extent	did not affect the barrier integrity	No significant difference	lower	did not affect barrier integrity	–
CC[C@H](C)[C@H](NC(=O)[C@H](CO)NC(=O)[C@H](CO)NC(=O)[C@H](CC(C)C)NC(=O)[C@H](CCCCN)NC(=O)[C@H](CCCNC(=N)N)NC(=O)[C@H](CCCNC(=N)N)NC(=O)[C@H](CCCNC(=N)N)NC(=O)[C@H](CCC(N)=O)NC(=O)[C@H](CCCNC(=N)N)NC(=O)[C@H](CCCNC(=N)N)NC(=O)[C@H](CCCCN)NC(=O)[C@H](CCCCN)NC(=O)[C@H](CCCNC(=N)N)NC(=O)CNC(=O)[C@H](Cc1ccc(O)cc1)NC(=O)c1ccc2c(c1)C(=O)OC21c2ccc(N(C)C)cc2Oc2cc(N(C)C)ccc21)C(=O)N[C@@H](CCC(=O)O)C(=O)N[C@@H](CO)C(=O)N[C@@H](CC(=O)O)C(=O)N[C@H](C(=O)O)C(C)C [TAMRA-Tat-NR2B9c] (5TAMRA-YGRKKRRQRRRKLSSIESDV-OH)	Significantly larger amounts	Significantly larger amounts	taken up into vesicular structures to a similar extent	significant decrease in TEER	to a greater extent than TAMRA-NR2B9c	to a greater extent than TAMRA-NR2B9c	–	to a greater extent than TAMRA-NR2B9c
CN(C)c1ccc2c(c1)Oc1cc(N(C)C)ccc1C21OC(=O)c2cc(C(=O)N[C@@H](Cc3ccc(O)cc3)C(=O)NCC(=O)N[C@@H](CCCNC(=N)N)C(=O)N[C@@H](CCCCN)C(=O)N[C@@H](CCCCN)C(=O)N[C@@H](CCCNC(=N)N)C(=O)N[C@@H](CCCNC(=N)N)C(=O)N[C@@H](CCC(N)=O)C(=O)N[C@@H](CCCNC(=N)N)C(=O)N[C@@H](CCCNC(=N)N)C(=O)N[C@@H](CCCNC(=N)N)C(=O)O)ccc21 [TAMRA-Tat]	Significantly larger amounts	Significantly larger amounts	taken up into vesicular structures to a similar extent	significant decrease in TEER	to a greater extent than TAMRA-NR2B9c	similar	–	to a greater extent than TAMRA-NR2B9c
